A word on the GI50: it is the concentration that inhibits growth by half.

Common to all, as to assay: DTP human tumour cell line panel, 48 h
For assay [1], the system named is HCT-116.
Assay [2] deals with RPMI-8226.
The subject of assay [3] is LXFL 529.
Assay [4] deals with SK-OV-3.
In assay [5] the test system is EKVX.
For assay [6], the system named is SW-620.
In assay [7] the test system is IGROV-1.
The subject of assay [8] is OVCAR-8.
Assay [9] relates to NCI-H522.
In assay [10] the test system is M14.
Assay [11] deals with OVCAR-4.
Assay [12] has as its system A549.
Assay [13] deals with HL-60.
In assay [14] the test system is HOP-92.
Assay [15] deals with UACC-62.
Assay [16] deals with SF-539.
The subject of assay [17] is SF-268.

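Test compounds were applied to cells in 96-well plates for 48 hours at 5 doses. At the GI50, growth is halved.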 Active and inactive are the calls of the source. No stated cut-off is given here; in the data, active = GI50 up to about 1.1 µM and inactive = higher.

With `COC(=O)C1C(OCc2ccccc2)C2CCC1(OC)C=C2C` (stereo not given), the GI50 in assay [1] was 61.4 µM (inactive); in assay [2], 23.6 µM (inactive); in [3] it was 59 µM (inactive); in [4] it was > 100 µM (inactive); in assay [5] it was 46.9 µM (inactive); in assay [6], > 100 µM (inactive). The GI50 in assay [7] is > 100 µM (inactive); in assay [8], > 84.9 µM (inactive); in [9], 29.4 µM (inactive); in [10], 60.8 µM (inactive); in [11], > 100 µM (inactive); in assay [12] it was > 100 µM (inactive). The GI50 in assay [13] was 10.8 µM (inactive); in assay [14], > 100 µM (inactive); in assay [15], 64.6 µM (inactive); in assay [16] it was 97.7 µM (inactive); in assay [17], > 100 µM (inactive).

In the case of `c1ccc2c(c1)cc(C1NCCc3nc[nH]c31)c1ccccc12` (stereo not given), the GI50 in [1] is 21.1 µM (inactive); in [2] it was 37.6 µM (inactive); in [3], 41.3 µM (inactive); in assay [4] it was > 100 µM (inactive); in [5] it was > 100 µM (inactive); in assay [6], 25.5 µM (inactive). For the same molecule, the GI50 was > 54.6 µM (inactive) in assay [7]; > 68.9 µM (inactive) in assay [8]; 27.7 µM (inactive) in assay [9]; 18.5 µM (inactive) in [10]; 37.2 µM (inactive) in assay [11]; 54.5 µM (inactive) in assay [12]. The GI50 in [13] is 41.6 µM (inactive); in assay [14], > 44.4 µM (inactive); in [15], 22.6 µM (inactive); in [16] it was > 45.2 µM (inactive); in [17], 77.1 µM (inactive).

For the molecule `[N-]=[N+]=NC1(c2ccccc2)C(=O)C(Cl)=C(c2ccccc2)N(c2ccccc2)C1=O` (stereo not given), the GI50 in assay [1] was > 100 µM (inactive); in [3], 91.6 µM (inactive); in assay [4], 31.3 µM (inactive); in assay [5], > 100 µM (inactive); in assay [6], > 100 µM (inactive); in [7] it was > 100 µM (inactive). Further, the GI50 in [8] was > 100 µM (inactive); in assay [9], 41.2 µM (inactive); in [10] it was > 100 µM (inactive); in [11], > 100 µM (inactive); in [12], > 100 µM (inactive); in assay [13], 43.1 µM (inactive). Also, the GI50 in assay [14], in [15], in [16] and in assay [17] was > 100 µM (inactive) each time.

On to `CC(C)OP(=O)(OC(C)C)/C(=N/Nc1ccc([N+](=O)[O-])cc1)NNC(=O)c1ccccc1`, for which the GI50 in assay [1] was 34.2 µM (inactive); in assay [2], 29.7 µM (inactive); in assay [3], 20 µM (inactive); in [5] it was > 100 µM (inactive); in [6] it was 32.8 µM (inactive); in assay [8], 34.7 µM (inactive). The GI50 in assay [9] is 42.4 µM (inactive); in [10], 33.2 µM (inactive); in assay [11] it was 31.4 µM (inactive); in assay [12] it was 55.6 µM (inactive); in assay [13], 19.7 µM (inactive); in [14] it was 24.9 µM (inactive). Besides, the GI50 in [15] was 20.5 µM (inactive); in [16], > 100 µM (inactive); in assay [17], 36.7 µM (inactive).

Take `Cc1nc(=O)[nH]c2[nH][nH]c(=O)c12`: the GI50 in assay [1], in assay [2], in assay [3], in assay [4], in assay [5] and in assay [6] was > 100 µM (inactive) throughout. Further, the GI50 in assay [7], in assay [8], in [9], in assay [10], in assay [11] and in assay [12] was > 100 µM (inactive) each time. The GI50 in assay [13], in [14], in assay [15], in [16] and in assay [17] was > 100 µM (inactive) throughout.

On to `CCOC(=O)/C(=C/c1ccc(OC)cc1)N(CC)CC`, for which the GI50 in assay [1], in [2], in [3], in assay [4], in assay [5] and in assay [6] was > 100 µM (inactive) each time. The GI50 in [7], in assay [8], in [9], in assay [10], in assay [11] and in [12] was > 100 µM (inactive) throughout. Besides, the GI50 in assay [13] is 52.1 µM (inactive); in [14] it was > 100 µM (inactive); in assay [15], > 100 µM (inactive); in [16], > 100 µM (inactive); in assay [17], > 100 µM (inactive).

Take `Cc1ccc(S(=O)(=O)c2ccccn2)cc1`: the GI50 in [1], in assay [2], in assay [3], in assay [4], in assay [5] and in assay [6] was > 100 µM (inactive) in each case. Moreover, the GI50 in assay [7], in [8], in assay [9], in [10], in [11] and in assay [12] was > 100 µM (inactive) throughout. The GI50 in assay [13], in assay [14], in assay [15], in assay [16] and in assay [17] was > 100 µM (inactive) throughout.

Regarding `CC(=O)OC1(C#N)CC2OC1C1N=NN(C(=O)OC(C)(C)C)C21` (stereo not given), the GI50 in [1] is 10.9 µM (inactive); in assay [2], 30.3 µM (inactive); in [3], 32.3 µM (inactive); in assay [4], > 100 µM (inactive); in assay [5], 55.1 µM (inactive); in assay [6] it was 14.6 µM (inactive). In addition, the GI50 is > 31.6 µM (inactive) in assay [7]; 30.3 µM (inactive) in assay [8]; > 100 µM (inactive) in [9]; 21.7 µM (inactive) in assay [10]; 28.4 µM (inactive) in [11]; > 10 µM (inactive) in [12]. Also, the GI50 in assay [13] was 20.6 µM (inactive); in assay [14] it was 20.7 µM (inactive); in [15], 18.8 µM (inactive); in assay [16] it was 9.75 µM (inactive); in assay [17] it was 61.1 µM (inactive).

For `N[C@H](C(=O)O)[C@H](Cl)CC(=O)O`, the GI50 in [1], in [3], in assay [4], in [5], in assay [6] and in assay [7] was > 100 µM (inactive) throughout. The GI50 in assay [8], in assay [9], in assay [10], in assay [11], in assay [12] and in assay [13] was > 100 µM (inactive) throughout. Further, the GI50 in [14], in assay [15], in [16] and in assay [17] was > 100 µM (inactive) in each case.

As to `COC(=O)N/N=C(\C)C(CN(C)C)C(c1ccccc1)c1c(O)c2ccccc2oc1=O` (stereo not given), the GI50 in assay [1], in assay [2], in [3], in [4], in assay [5] and in assay [6] was > 100 µM (inactive) in each case. Besides, the GI50 was > 100 µM (inactive) in [7]; > 100 µM (inactive) in assay [8]; 14.2 µM (inactive) in assay [9]; > 100 µM (inactive) in assay [10]; > 100 µM (inactive) in assay [11]; > 100 µM (inactive) in assay [12]. In addition, the GI50 in assay [13] is > 100 µM (inactive); in assay [14], 27.2 µM (inactive); in assay [15] it was > 100 µM (inactive); in [16], > 100 µM (inactive); in assay [17], > 100 µM (inactive).

In the case of `O=C(CCc1n[nH]c(=S)o1)Nc1ccc(Cl)cc1Cl`, the GI50 in assay [1] is 33.9 µM (inactive); in assay [2], 16.9 µM (inactive); in [3] it was > 100 µM (inactive); in assay [4], > 100 µM (inactive); in assay [5], > 100 µM (inactive); in [6], 15.5 µM (inactive). Besides, the GI50 is > 100 µM (inactive) in assay [7]; > 100 µM (inactive) in [8]; 61.8 µM (inactive) in assay [9]; > 100 µM (inactive) in assay [10]; > 100 µM (inactive) in assay [11]; > 100 µM (inactive) in assay [12]. In addition, the GI50 in assay [13] is 76.4 µM (inactive); in assay [14], 68.7 µM (inactive); in assay [15], > 100 µM (inactive); in [16] it was > 100 µM (inactive); in assay [17], > 100 µM (inactive).

As for `COc1cc2c(c(OC)c1OC)-c1ccc(SC)c(=O)cc1[C@@H](NC(=O)c1ccc(OC(C)=O)cc1)CC2`, the GI50 in [1] is 0.0229 µM (active); in [2], 0.0327 µM (active); in [3] it was 0.0158 µM (active); in [4] it was 0.0241 µM (active); in assay [5], 0.0139 µM (active); in [6] it was 0.029 µM (active). The GI50 is 0.0319 µM (active) in [7]; 0.0313 µM (active) in [8]; 0.01 µM (active) in assay [9]; 0.0215 µM (active) in assay [10]; 0.0675 µM (active) in assay [11]; 0.01 µM (active) in assay [12]. Besides, the GI50 is 0.0338 µM (active) in [13]; 0.00257 µM (active) in [14]; 0.0313 µM (active) in [15]; 0.0169 µM (active) in [16]; 0.0306 µM (active) in assay [17].
